System: HUVEC/MSC spheroids viability
Experiment: Human HUVEC/MSC cell line growth inhibition [KRAS2];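 on viability, T/C: percent of DMSO vehicle control luminescence so 100% = untreated viability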
Conditions: for viability, T/C: stronger effect = lower value
Method in brief: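 Stroma-only multicellular spheroids, formed from HUVEC and human MSCs at passages </=5, received RAS-pathway inhibitors with or without a second targeted drug. Dosing followed half-log dilutions from clinically achievable levels.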

[1] = curve of first compound, second compound 0.00949 µM
[2] = curve of first compound, second compound 0.03 µM
[3] = curve of first compound, second compound 0.0949 µM
[4] = curve of first compound, second compound 0.3 µM
[5] = curve of first compound, second compound 0.949 µM
[6] = curve of first compound, second compound 3 µM
[7] = second compound 0.00949 µM, first compound 0.0316 µM
[8] = second compound 0.00949 µM, first compound 0.1 µM
[9] = second compound 0.03 µM, first compound 0.0316 µM
[10] = second compound 0.03 µM, first compound 0.1 µM
[11] = second compound 0.0949 µM, first compound 0.0316 µM
[12] = second compound 0.0949 µM, first compound 0.1 µM
[13] = second compound 0.3 µM, first compound 0.0316 µM
[14] = second compound 0.3 µM, first compound 0.1 µM
[15] = second compound 0.949 µM, first compound 0.0316 µM
[16] = second compound 0.949 µM, first compound 0.1 µM
[17] = second compound 3 µM, first compound 0.0316 µM
[18] = second compound 3 µM, first compound 0.1 µM

SMILES: Cn1nccc1Nc1nccc(-c2cc3c(s2)C(C)(C)N(CCN2CCOCC2)C3=O)n1 + C=CC(=O)N1CCN(c2nc(OCC3CCCN3C)nc3c2CCN(c2cccc4cccc(C)c24)C3)CC1CC#N
- IC50 [1]: 2880 nM
- IC50 [2]: 3050 nM
- IC50 [3]: 2890 nM
- IC50 [4]: 3020 nM
- IC50 [5]: 2420 nM
- IC50 [6]: 1130 nM
- viability, T/C [7]: 81.1%
- viability, T/C [8]: 103%
- viability, T/C (second compound 0.00949 µM, first compound 0.316 µM): 124%
- viability, T/C (second compound 0.00949 µM, first compound 1 µM): 109%
- viability, T/C (second compound 0.00949 µM, first compound 3.16 µM): 45.1%
- viability, T/C (second compound 0.00949 µM, first compound 10 µM): 6.48%
- viability, T/C [9]: 85.3%
- viability, T/C [10]: 103%
- viability, T/C (second compound 0.03 µM, first compound 0.316 µM): 111%
- viability, T/C (second compound 0.03 µM, first compound 1 µM): 96.2%
- viability, T/C (second compound 0.03 µM, first compound 3.16 µM): 48.6%
- viability, T/C (second compound 0.03 µM, first compound 10 µM): 5.51%
- viability, T/C [11]: 93.1%
- viability, T/C [12]: 119%
- viability, T/C (second compound 0.0949 µM, first compound 0.316 µM): 106%
- viability, T/C (second compound 0.0949 µM, first compound 1 µM): 86.1%
- viability, T/C (second compound 0.0949 µM, first compound 3.16 µM): 47.6%
- viability, T/C (second compound 0.0949 µM, first compound 10 µM): 9.65%
- viability, T/C [13]: 77.7%
- viability, T/C [14]: 85.8%
- viability, T/C (second compound 0.3 µM, first compound 0.316 µM): 99.6%
- viability, T/C (second compound 0.3 µM, first compound 1 µM): 91%
- viability, T/C (second compound 0.3 µM, first compound 3.16 µM): 48.5%
- viability, T/C (second compound 0.3 µM, first compound 10 µM): 3.83%
- viability, T/C [15]: 76.7%
- viability, T/C [16]: 91.2%
- viability, T/C (second compound 0.949 µM, first compound 0.316 µM): 93.9%
- viability, T/C (second compound 0.949 µM, first compound 1 µM): 92.1%
- viability, T/C (second compound 0.949 µM, first compound 3.16 µM): 38.4%
- viability, T/C (second compound 0.949 µM, first compound 10 µM): 1.39%
- viability, T/C [17]: 90.6%
- viability, T/C [18]: 107%
- viability, T/C (second compound 3 µM, first compound 0.316 µM): 93.8%
- viability, T/C (second compound 3 µM, first compound 1 µM): 55.7%
- viability, T/C (second compound 3 µM, first compound 3.16 µM): 2.04%
- viability, T/C (second compound 3 µM, first compound 10 µM): 0.32%

SMILES: CC1COCCN1c1cc(-c2ccnn2C)c2ccnc(-c3ccn[nH]3)c2n1 (centres undefined) + COc1cc2nc(C)nc(NC(C)c3cc(N)cc(C(F)(F)F)c3)c2cc1OC1CCOC1
- IC50 (curve of first compound, second compound 0.0316 µM): 1740 nM
- IC50 (curve of first compound, second compound 0.1 µM): 908 nM
- IC50 (curve of first compound, second compound 0.316 µM): > 3000 nM
- IC50 (curve of first compound, second compound 1 µM): 1040 nM
- IC50 (curve of first compound, second compound 3.16 µM): 2520 nM
- IC50 (curve of first compound, second compound 10 µM): > 3000 nM
- viability, T/C (second compound 0.0316 µM, first compound 0.00949 µM): 98.9%
- viability, T/C (second compound 0.0316 µM, first compound 0.03 µM): 92.4%
- viability, T/C (second compound 0.0316 µM, first compound 0.0949 µM): 86.8%
- viability, T/C (second compound 0.0316 µM, first compound 0.3 µM): 75.7%
- viability, T/C (second compound 0.0316 µM, first compound 0.949 µM): 55.9%
- viability, T/C (second compound 0.0316 µM, first compound 3 µM): 43.9%
- viability, T/C (second compound 0.1 µM, first compound 0.00949 µM): 83.2%
- viability, T/C (second compound 0.1 µM, first compound 0.03 µM): 81.1%
- viability, T/C (second compound 0.1 µM, first compound 0.0949 µM): 79.7%
- viability, T/C (second compound 0.1 µM, first compound 0.3 µM): 80.4%
- viability, T/C (second compound 0.1 µM, first compound 0.949 µM): 48.8%
- viability, T/C (second compound 0.1 µM, first compound 3 µM): 46.4%
- viability, T/C (second compound 0.316 µM, first compound 0.00949 µM): 82.2%
- viability, T/C (second compound 0.316 µM, first compound 0.03 µM): 95%
- viability, T/C (second compound 0.316 µM, first compound 0.0949 µM): 80.3%
- viability, T/C (second compound 0.316 µM, first compound 0.3 µM): 79.8%
- viability, T/C (second compound 0.316 µM, first compound 0.949 µM): 47.6%
- viability, T/C (second compound 0.316 µM, first compound 3 µM): 52.4%
- viability, T/C (second compound 1 µM, first compound 0.00949 µM): 88.3%
- viability, T/C (second compound 1 µM, first compound 0.03 µM): 89.8%
- viability, T/C (second compound 1 µM, first compound 0.0949 µM): 95.8%
- viability, T/C (second compound 1 µM, first compound 0.3 µM): 72.1%
- viability, T/C (second compound 1 µM, first compound 0.949 µM): 53.3%
- viability, T/C (second compound 1 µM, first compound 3 µM): 37.3%
- viability, T/C (second compound 3.16 µM, first compound 0.00949 µM): 79%
- viability, T/C (second compound 3.16 µM, first compound 0.03 µM): 94.1%
- viability, T/C (second compound 3.16 µM, first compound 0.0949 µM): 93.2%
- viability, T/C (second compound 3.16 µM, first compound 0.3 µM): 81.7%
- viability, T/C (second compound 3.16 µM, first compound 0.949 µM): 59.5%
- viability, T/C (second compound 3.16 µM, first compound 3 µM): 48.2%
- viability, T/C (second compound 10 µM, first compound 0.00949 µM): 63.3%
- viability, T/C (second compound 10 µM, first compound 0.03 µM): 72.6%
- viability, T/C (second compound 10 µM, first compound 0.0949 µM): 65.2%
- viability, T/C (second compound 10 µM, first compound 0.3 µM): 60.4%
- viability, T/C (second compound 10 µM, first compound 0.949 µM): 59.4%
- viability, T/C (second compound 10 µM, first compound 3 µM): 59%

SMILES: CC(C)n1nc(-c2ccc3oc(N)nc3c2)c2c(N)ncnc21 + C=CC(=O)N1CCN(c2nc(OCC3CCCN3C)nc3c2CCN(c2cccc4cccc(C)c24)C3)CC1CC#N
- IC50 [1]: 6.33 nM
- IC50 [2]: 6.8 nM
- IC50 [3]: 4.34 nM
- IC50 [4]: 3.35 nM
- IC50 [5]: 0.512 nM
- IC50 [6]: 22.2 nM
- viability, T/C (second compound 0.00949 µM, first compound 0.000316 µM): 80.6%
- viability, T/C (second compound 0.00949 µM, first compound 0.001 µM): 64.1%
- viability, T/C (second compound 0.00949 µM, first compound 0.00316 µM): 56.1%
- viability, T/C (second compound 0.00949 µM, first compound 0.01 µM): 43.1%
- viability, T/C [7]: 48.3%
- viability, T/C [8]: 39.8%
- viability, T/C (second compound 0.03 µM, first compound 0.000316 µM): 69.5%
- viability, T/C (second compound 0.03 µM, first compound 0.001 µM): 65.7%
- viability, T/C (second compound 0.03 µM, first compound 0.00316 µM): 44.1%
- viability, T/C (second compound 0.03 µM, first compound 0.01 µM): 54.1%
- viability, T/C [9]: 46.8%
- viability, T/C [10]: 42%
- viability, T/C (second compound 0.0949 µM, first compound 0.000316 µM): 80.1%
- viability, T/C (second compound 0.0949 µM, first compound 0.001 µM): 64.7%
- viability, T/C (second compound 0.0949 µM, first compound 0.00316 µM): 48.4%
- viability, T/C (second compound 0.0949 µM, first compound 0.01 µM): 49%
- viability, T/C [11]: 41.1%
- viability, T/C [12]: 40.8%
- viability, T/C (second compound 0.3 µM, first compound 0.000316 µM): 59.7%
- viability, T/C (second compound 0.3 µM, first compound 0.001 µM): 67.6%
- viability, T/C (second compound 0.3 µM, first compound 0.00316 µM): 50.5%
- viability, T/C (second compound 0.3 µM, first compound 0.01 µM): 43.5%
- viability, T/C [13]: 40.5%
- viability, T/C [14]: 36%
- viability, T/C (second compound 0.949 µM, first compound 0.000316 µM): 57.5%
- viability, T/C (second compound 0.949 µM, first compound 0.001 µM): 47.5%
- viability, T/C (second compound 0.949 µM, first compound 0.00316 µM): 42.7%
- viability, T/C (second compound 0.949 µM, first compound 0.01 µM): 34.5%
- viability, T/C [15]: 44.6%
- viability, T/C [16]: 44.3%
- viability, T/C (second compound 3 µM, first compound 0.000316 µM): 62.5%
- viability, T/C (second compound 3 µM, first compound 0.001 µM): 66.8%
- viability, T/C (second compound 3 µM, first compound 0.00316 µM): 54.1%
- viability, T/C (second compound 3 µM, first compound 0.01 µM): 58.6%
- viability, T/C [17]: 45.3%
- viability, T/C [18]: 40.7%

SMILES: O=C(c1cc(Cc2n[nH]c(=O)c3ccccc23)ccc1F)N1CCN(C(=O)C2CC2)CC1
- viability, T/C (compound 0.316 µM): 90.8% [middle of 5 runs]
- viability, T/C (compound 1 µM): 89.3% [middle of 5 runs]
- viability, T/C (compound 10 µM): 95.3% [middle of 5 runs]
- IC50 (curve of compound): > 10000 nM

SMILES: CNCc1ccccc1-c1csc(C(C)Nc2nc(C)nc3cc(OC)c(OC)cc23)c1 (centres undefined)
- viability, T/C (compound 0.0316 µM): 88.4% [middle of 9 runs]
- viability, T/C (compound 0.316 µM): 84.6% [middle of 9 runs]
- viability, T/C (compound 10 µM): 0.41% [middle of 8 runs]
- IC50 (compound alone, run of 05/05/2024): 5.29 µM [middle of 8 runs]

— PubChem BioAssay AID2060912 (Molecular Pharmacology Branch, DTP, NCI, 2025)
